The source of these data is US20210401773A1 (priority 2020, published 2021).

The test system of this test is COVID-19. In words: Clinical trials/studies: case reports of ye-[…] in people with COVID-19. The class given is in vivo. To be noted: case 2: taken before ye-COVIDICIN; they got worse.

On to `CCN(CCO)CCCC(C)Nc1ccnc2cc(Cl)ccc12` (stereo not shown) [Hydroxychloroquine], for which the “Effect on COVID-19 in patient” value was “did not work”.
